Experimental data reported in patent US7579356B2, “Thia-tetraazaacenaphthylene kinase inhibitors” (Janssen Pharmaceutica NV, priority 2005, dated 2009).

How the values were obtained:
[1] = system: HeLa cervical adenocarcinoma; assay: Cell Proliferation Inhibition Assay, Hela (C14 method); type: cell-based; settings: Homo sapiens, Table 7
Text: Cell Proliferation Inhibition Assay
The ability of a test compound to inhibit unregulated cell proliferation may be determined by measuring incorporation of ^14C-labelled thymidine into newly synthesized DNA within cell lines derived from carcinomas originating from several tissues. Accordingly, the effect of a test compound on proliferation of cells with a variety of phenotypes may be determined.
Carcinoma cell lines used include the HeLa cervical adenocarcinoma from the American Type Culture Collection (ATCC Cat. #CCL2), A375 malignant melanoma (ATCC Cat. #CRL-1619), HCT-116 colon carcinoma (ATCC Cat. #CCL-247), SKBR3 breast carcinoma (ATCC Cat. #HTB-30) and BT474 breast carcinoma (ATCC Cat. #HTB-20).
The carcinoma cells were trypsinized and counted. The cells (3000-8000 count) were added to each well of a 96-well CytoStar tissue culture treated scintillating microplate (Amersham #RPNQ0160) in complete medium (100 μL) and the plate was then incubated in complete medium for 24 hrs at 37° C. in an inert atmosphere containing 5% CO2.
Test compound (1 μL) in 100% DMSO was added to the plate test-wells with DMSO only added to control-wells. The plate was incubated in complete medium for a second 24 hr period at 37° C. in an atmosphere containing 5% CO2.
An aliquot of a solution of Methyl ^14C-thymidine (56 mC/mmol) (NEN #NEC568 or AMersham #CFA532) and complete medium (20 uL to provide 0.2 μCl/well) was then added to each well and the plate was incubated for a third 24 hr period at 37° C. in an atmosphere containing 5% CO2.
The plate contents were then discarded, the plate washed twice with PBS (200 μL) and then PBS (200 μL) was added to each well. The plate was sealed and the degree of methyl ^14C-thymidine incorporation was quantified on a Packard Top Count.
Cell proliferation of the Hela cell line was measured using the ATP-Lite method as described in the ATP Lite Kit (Perkin-Elmer Kit Number 6106941) or the C^14 method as described above. Cell proliferation of the other cell lines was measured using the C^14 method.

HER-4 = molecular target: T1, HER-4 (Homo sapiens, UniProt Q15303); assay: HER-4 Kinase Assay; type: biochemical
T1 construct: His6 with thrombin site (N); purchased Proqinase (Freiburg, Germany)
Protocol: The HER-4 kinase used was purified at Proqinase (Freiburg, Germany) from a construct that consisted of a fusion of GST (Glutathione-S-Transferase), HIS6-Thrombin and the nucleotides encoding amino acids 676 to 1307 of HER-4 (Accession NM 005235).
A mixture of a 10× kinase reaction buffer (600 mM Hepes at pH 7.5, 30 mM Magnesium Chloride, 0.03 mM Sodium Vanadate and 500 μg/mL PEG 20,000), DTT (1.2 mM final from a 10 mM) stock), ATP (1 μM from a 10 mM stock), biotinylated polyGluTyr (1.5 ng/μL final from stock of 1 μg/μL) prepared by Upstate Biotechnologies, Lake Placid, N.Y.), Manganese Chloride (3 mM final from a 1 M stock), γ-^33P-ATP (10 μCl/mL stock) and water (70 μL/well) was added to each well of a Streptavidin Flashplate (Cat. # SMP103, NEN, Boston, Mass.).
Test compound stock (1 μL) was added to the appropriate wells. Diluted GST HER-4 kinase (6.7 ng/μL diluted into 50 mM Tris-HCl at pH 8.0 and 0.1% bovine serum albumin) (30 μL) was added (total volume of 200 ng/well) to initiate the reactions.
The reaction plates were incubated at 30° C. for 1 hr. The reaction was terminated by aspirating the reaction mixture from the plate wells and washing the wells three times with a 1×PBS stop buffer (300 μL) and 100 mM EDTA. After the final wash, the same stop buffer (200 μL) was again added to the wells. The plates were then sealed and read on the TopCount scintillation counter.
For a series of test concentrations, the IC50 was derived by graphing percent inhibition against the log of the concentrations tested for a given compound.

T1 sequence (Q15303 676-1307): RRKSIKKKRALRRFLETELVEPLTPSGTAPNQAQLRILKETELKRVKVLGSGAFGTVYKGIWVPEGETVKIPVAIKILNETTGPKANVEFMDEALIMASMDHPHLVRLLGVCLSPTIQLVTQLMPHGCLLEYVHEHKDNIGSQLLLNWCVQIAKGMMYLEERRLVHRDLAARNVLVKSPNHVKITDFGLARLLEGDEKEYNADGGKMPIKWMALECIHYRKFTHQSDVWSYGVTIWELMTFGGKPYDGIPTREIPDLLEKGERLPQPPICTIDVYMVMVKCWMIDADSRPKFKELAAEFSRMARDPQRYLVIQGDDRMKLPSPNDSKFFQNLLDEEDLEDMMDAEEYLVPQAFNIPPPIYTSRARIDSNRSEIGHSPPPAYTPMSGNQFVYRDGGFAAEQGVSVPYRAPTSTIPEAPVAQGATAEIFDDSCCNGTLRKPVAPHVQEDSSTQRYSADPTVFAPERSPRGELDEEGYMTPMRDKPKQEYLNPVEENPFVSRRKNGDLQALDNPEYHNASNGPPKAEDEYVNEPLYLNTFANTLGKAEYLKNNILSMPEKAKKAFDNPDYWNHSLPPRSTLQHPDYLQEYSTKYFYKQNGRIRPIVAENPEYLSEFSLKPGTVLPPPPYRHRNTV

Row | Structure (SMILES) | IC50 [1] | IC50 (HER-4)
1 | CCOC(=O)c1sc2ncnc3c2c1NC(=O)N3c1ccc(C)c(Br)c1 [Cpd 102, 5-(3-bromo-4-methyl-phenyl)-4-oxo-4,5-dihydro-3H-1-thia-3,5,6,8-tetraaza-acenaphthylene-2-carboxylic acid ethyl ester] | ≥ 100 µM | 
2 | Cc1ccc(N2C(=O)Nc3c(C(=O)NC4CCN(C)CC4)sc4ncnc2c34)cc1Br [Cpd 116, 5-(3-bromo-4-methyl-phenyl)-4-oxo-4,5-dihydro-3H-1-thia-3,5,6,8-tetraaza-acenaphthylene-2-carboxylic acid (1-methyl-piperidin-4-yl)-amide] | ≥ 10 µM | 
3 | O=C(O)c1sc2ncnc3c2c1NC(=O)N3c1ccc2c(cnn2Cc2cccc(F)c2)c1 [Cpd 79, 5-[1-(3-fluoro-benzyl)-1H-indazol-5-yl]-4-oxo-4,5-dihydro-3H-1-thia-3,5,6,8-tetraaza-acenaphthylene-2-carboxylic acid] | ≥ 100 µM | 
4 | O=C(Nc1ccc(CN2CCCCC2)cc1)c1sc2ncnc3c2c1NC(=O)N3c1ccc2c(ccn2Cc2cccc(F)c2)c1 [Cpd 87, 5-[1-(3-fluoro-benzyl)-1H-indol-5-yl]-4-oxo-4,5-dihydro-3H-1-thia-3,5,6,8-tetraaza-acenaphthylene-2-carboxylic acid (4-piperidin-1-ylmethyl-phenyl)-amide] | 3.19 µM | 
5 | O=C(Nc1ccc(CN2CCOCC2)cc1)c1sc2ncnc3c2c1NC(=O)N3c1ccc(Oc2ccccc2)cc1 [Cpd 97, 4-oxo-5-(4-phenoxy-phenyl)-4,5-dihydro-3H-1-thia-3,5,6,8-tetraaza-acenaphthylene-2-carboxylic acid (4-morpholin-4-ylmethyl-phenyl)-amide] |  | 0.099 µM
6 | CN1CCN(Cc2ccc(NC(=O)c3sc4ncnc5c4c3NC(=O)N5c3ccc(Oc4ccccc4)cc3)cc2)CC1 [Cpd 98, 4-oxo-5-(4-phenoxy-phenyl)-4,5-dihydro-3H-1-thia-3,5,6,8-tetraaza-acenaphthylene-2-carboxylic acid [4-(4-methyl-piperazin-1-ylmethyl)-phenyl]-amide] |  | 0.081 µM
7 | Cc1ccc(Br)cc1N1C(=O)Nc2c(C(=O)NC3CCN(C)CC3)sc3ncnc1c23 [Cpd 117, 5-(5-bromo-2-methyl-phenyl)-4-oxo-4,5-dihydro-3H-1-thia-3,5,6,8-tetraaza-acenaphthylene-2-carboxylic acid (1-methyl-piperidin-4-yl)-amide] | ≥ 100 µM | 
8 | CCOC(=O)c1sc2ncnc3c2c1NC(=O)N3c1ccc(Oc2ccc(F)cc2)cc1 [Cpd 101, 5-[4-(4-fluoro-phenoxy)-phenyl]-4-oxo-4,5-dihydro-3H-1-thia-3,5,6,8-tetraaza-acenaphthylene-2-carboxylic acid ethyl ester] | ≥ 100 µM | 
9 | O=C(Nc1ccc(CN2CCOCC2)cc1)c1sc2ncnc3c2c1NC(=O)N3c1ccc(Oc2ccc(F)cc2)cc1 [Cpd 110, 5-[4-(4-fluoro-phenoxy)-phenyl]-4-oxo-4,5-dihydro-3H-1-thia-3,5,6,8-tetraaza-acenaphthylene-2-carboxylic acid (4-morpholin-4-ylmethyl-phenyl)-amide] | 15.5 µM | 
10 | CC(C)(C)OC(=O)N1CCC(NC(=O)c2sc3ncnc4c3c2NC(=O)N4c2ccc3c(ccn3Cc3cccc(F)c3)c2)CC1 [Cpd 91, 4-({5-[1-(3-fluoro-benzyl)-1H-indol-5-yl]-4-oxo-4,5-dihydro-3H-1-thia-3,5,6,8-tetraaza-acenaphthylene-2-carbonyl}-amino)-piperidine-1-carboxylic acid tert-butyl ester] | 1 µM | 
11 | CCOC(=O)c1sc2ncnc3c2c1NC(=O)N3c1ccc2c(cnn2Cc2cccc(F)c2)c1 [Cpd 78, 5-[1-(3-fluoro-benzyl)-1H-indazol-5-yl]-4-oxo-4,5-dihydro-3H-1-thia-3,5,6,8-tetraaza-acenaphthylene-2-carboxylic acid ethyl ester] | ≥ 100 µM | 
12 | O=C(Nc1ccc(CN2CCCCC2)cc1)c1sc2ncnc3c2c1NC(=O)N3c1ccc2c(cnn2Cc2cccc(F)c2)c1 [Cpd 80, 5-[1-(3-fluoro-benzyl)-1H-indazol-5-yl]-4-oxo-4,5-dihydro-3H-1-thia-3,5,6,8-tetraaza-acenaphthylene-2-carboxylic acid (4-piperidin-1-ylmethyl-phenyl)-amide] | 5.14 µM | 
13 | CN1CCC(NC(=O)c2sc3ncnc4c3c2NC(=O)N4c2ccc3c(ccn3Cc3cccc(F)c3)c2)CC1 [Cpd 92, 5-[1-(3-fluoro-benzyl)-1H-indol-5-yl]-4-oxo-4,5-dihydro-3H-1-thia-3,5,6,8-tetraaza-acenaphthylene-2-carboxylic acid (1-methyl-piperidin-4-yl)-amide] | 4.3 µM | 
14 | O=C(Nc1ccc(CN2CCCCC2)cc1)c1sc2ncnc3c2c1NC(=O)N3c1ccc(Oc2ccccc2)cc1 [Cpd 96, 4-oxo-5-(4-phenoxy-phenyl)-4,5-dihydro-3H-1-thia-3,5,6,8-tetraaza-acenaphthylene-2-carboxylic acid (4-piperidin-1-ylmethyl-phenyl)-amide] |  | 0.018 µM
15 | O=C(Nc1ccc(N2CCOCC2)cc1)c1sc2ncnc3c2c1NC(=O)N3c1ccc2c(ccn2Cc2cccc(F)c2)c1 [Cpd 94, 5-[1-(3-fluoro-benzyl)-1H-indol-5-yl]-4-oxo-4,5-dihydro-3H-1-thia-3,5,6,8-tetraaza-acenaphthylene-2-carboxylic acid (4-morpholin-4-yl-phenyl)-amide] | ≥ 100 µM | 
16 | CN1CCC(NC(=O)c2sc3ncnc4c3c2NC(=O)N4c2ccc(Oc3ccc(F)cc3)cc2)CC1 [Cpd 118, 5-[4-(4-fluoro-phenoxy)-phenyl]-4-oxo-4,5-dihydro-3H-1-thia-3,5,6,8-tetraaza-acenaphthylene-2-carboxylic acid (1-methyl-piperidin-4-yl)-amide] | ≥ 10 µM | 
17 | O=C(NCCN1CCOCC1)c1sc2ncnc3c2c1NC(=O)N3c1ccc2c(ccn2Cc2cccc(F)c2)c1 [Cpd 93, 5-[1-(3-fluoro-benzyl)-1H-indol-5-yl]-4-oxo-4,5-dihydro-3H-1-thia-3,5,6,8-tetraaza-acenaphthylene-2-carboxylic acid (2-morpholin-4-yl-ethyl)-amide] | ≥ 10 µM | 
18 | O=C(O)c1sc2ncnc3c2c1NC(=O)N3c1ccc2c(ccn2Cc2cccc(F)c2)c1 [Cpd 77, 5-[1-(3-fluoro-benzyl)-1H-indol-5-yl]-4-oxo-4,5-dihydro-3H-1-thia-3,5,6,8-tetraaza-acenaphthylene-2-carboxylic acid] | ≥ 100 µM | 
19 | Cc1ccc(N2C(=O)Nc3c(C(=O)Nc4ccc(CN5CCOCC5)cc4)sc4ncnc2c34)cc1Br [Cpd 108, 5-(3-bromo-4-methyl-phenyl)-4-oxo-4,5-dihydro-3H-1-thia-3,5,6,8-tetraaza-acenaphthylene-2-carboxylic acid (4-morpholin-4-ylmethyl-phenyl)-amide] | ≥ 100 µM | 
20 | Cc1ccc(Br)cc1N1C(=O)Nc2c(C(=O)Nc3ccc(CN4CCOCC4)cc3)sc3ncnc1c23 [Cpd 109, 5-(5-bromo-2-methyl-phenyl)-4-oxo-4,5-dihydro-3H-1-thia-3,5,6,8-tetraaza-acenaphthylene-2-carboxylic acid (4-morpholin-4-ylmethyl-phenyl)-amide] | ≥ 10 µM | 
21 | O=C(NCCCN1CCOCC1)c1sc2ncnc3c2c1NC(=O)N3c1ccc2c(ccn2Cc2cccc(F)c2)c1 [Cpd 95, 5-[1-(3-fluoro-benzyl)-1H-indol-5-yl]-4-oxo-4,5-dihydro-3H-1-thia-3,5,6,8-tetraaza-acenaphthylene-2-carboxylic acid (3-morpholin-4-yl-propyl)-amide] | ≥ 10 µM | 
22 | CCOC(=O)c1sc2ncnc3c2c1NC(=O)N3c1cc(Br)ccc1C [Cpd 103, 5-(5-bromo-2-methyl-phenyl)-4-oxo-4,5-dihydro-3H-1-thia-3,5,6,8-tetraaza-acenaphthylene-2-carboxylic acid ethyl ester] | ≥ 100 µM | 
